According to patent publication US20150018417A1, “FATTY ACIDS AS ANTI-INFLAMMATORY AGENTS” (University of Pittsburgh - Of the Commonwealth System of …, priority 2012, published 2015):

Tests used:
[1] = system: RAW264.7 cells; experiment: EFAD formation in activated RAW264.7 cells treated with inhibitors; type: cell-based, murine; details: ASA 200 μM; all EFADs except EFAD-4 and EFAD-6
[2] = system: bone marrow-derived macrophage (BMDM) cells; experiment: EFAD formation in activated bone marrow-derived macrophages; type: cell-based, C57BL/6 murine; details: BMDM activated with Kdo2 and IFNγ
Procedure: FIG. 8 illustrates formation of EFAD in activated primary murine macrophages. Bone marrow derived macrophages were activated with Kdo2 (0.5 μg/ml) and IFNγ (200 U/ml) and EFADs were detected 1O h post activation.
Bone marrow derived macrophages were isolated from C57BL/6 mice according to the protocol developed by Davies. See Davies, J. Q. & Gordon, S. Isolation and culture of murine macrophages. Methods Mol Biol 290, 91-103 (2005).
EFADs are produced by primary macrophages isolated from mouse bone marrow. […] Thus, C57BL/6 murine primary hematopoietic stem cells were differentiated to macrophages, activated with Kdo2 and IFNγ and analyzed for the formation of EFADs. Five out of the six EFAD species (EFAD-I, 2, -3, -5 and -6) were observed which co-eluted with those produced by RAW 264.7 cells and with the available standards.

[3] = target: T1, Purified ovine COX-2 (Ovis aries, UniProt P79208); experiment: COX-2 reaction with DPA ± ASA, OH-DPA formation; type: biochemical; details: ovine COX-2 + DPA 10 μM ± 2 mM ASA
T1 construct: Ovine placental COX-2 (Cayman 60120) was also from Cayman Chemicals; purchased Cayman Chemicals 60120; host or cells: ovine placenta
T1 sequence (P79208 17-603): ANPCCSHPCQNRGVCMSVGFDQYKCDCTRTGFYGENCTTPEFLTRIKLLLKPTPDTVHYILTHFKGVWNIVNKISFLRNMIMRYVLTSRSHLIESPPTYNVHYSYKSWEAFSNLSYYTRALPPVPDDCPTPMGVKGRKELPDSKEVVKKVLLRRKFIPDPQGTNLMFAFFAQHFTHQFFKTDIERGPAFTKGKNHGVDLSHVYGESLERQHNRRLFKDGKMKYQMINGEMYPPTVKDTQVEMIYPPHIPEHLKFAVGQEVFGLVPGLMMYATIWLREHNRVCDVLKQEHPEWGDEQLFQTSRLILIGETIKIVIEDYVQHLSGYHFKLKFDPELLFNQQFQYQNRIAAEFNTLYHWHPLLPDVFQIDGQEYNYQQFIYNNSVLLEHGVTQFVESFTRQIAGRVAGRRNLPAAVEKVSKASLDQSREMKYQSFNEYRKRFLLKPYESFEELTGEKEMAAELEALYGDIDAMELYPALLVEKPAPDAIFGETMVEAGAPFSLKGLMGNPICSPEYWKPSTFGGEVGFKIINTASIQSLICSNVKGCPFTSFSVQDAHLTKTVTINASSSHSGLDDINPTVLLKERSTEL
Procedure: The results of the COX-2 inhibition study implicate a the involvement of COX-2 in EFAD formation and motivated the development of an in vitro model of enzymatic EFAD synthesis. Purified ovine COX-2 was used to generate the EFAD-2 precursor (OH-DPA), (FIG. 7c-e), while the EFAD-I precursor, hydroxy-DHA (OH-DHA), was produced from DHA by COX-2 (FIGS. 19a and 19b).
Ovine placental COX-2 (20 U/ml) was preincubated in Tris/heme/phenol (THP) buffer ±2 mM ASA at 37° C. THP buffer, freshly prepared before each reaction, consisted of Tris*C1 (100 mM, pH 8.1), hematin (1 μM), and phenol (1 μM). The reaction was initiated by addition of the indicated fatty acids at a concentration of 10 μM. Reactions were terminated at the indicated time points by addition of ice-cold acetonitrile (9× reaction volume) and COX-2 protein was removed by centrifugation. Product formation was monitored by RP-HPLC-MS/MS in multiple reaction monitoring (MRM) mode following the loss Of CO2 (m/z 345/301 and m/z 343/299 for OH-DPA and OH-DHA, respectively).

CC(=O)Oc1ccccc1C(=O)O [ASA, acetyl salicylic acid]
increase of EFAD formation [1]: about 2.5 fold
extent of EFAD formation with ASA [2]: increased about two to three fold
rate and extent of formation of OH-DPA [3]: increased the rate and extent of formation
